Test results taken from patent US20090170131A1, “Agents for Imaging Apoptosis” (priority 2006, published 2009).

What was measured:
caspase-3 = target: T1, caspase-3 (Homo sapiens, UniProt P42574); assay: AMC-M808 cleavage in DLD1 colon carcinoma cells after TRAIL treatment, time-lapse confocal fluorescence; format: cell-based
T1 construct: In DLD1 colon carcinoma cells in vitro; endogenous in cells; host or cells: DLD1 colon carcinoma cells
T1 sequence (P42574 29-175 limits assumed): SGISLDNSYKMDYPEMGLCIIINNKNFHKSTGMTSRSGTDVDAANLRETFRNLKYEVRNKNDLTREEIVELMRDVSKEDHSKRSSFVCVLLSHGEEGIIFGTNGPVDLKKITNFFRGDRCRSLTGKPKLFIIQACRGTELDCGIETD
T1 sequence (P42574 176-277 limits assumed): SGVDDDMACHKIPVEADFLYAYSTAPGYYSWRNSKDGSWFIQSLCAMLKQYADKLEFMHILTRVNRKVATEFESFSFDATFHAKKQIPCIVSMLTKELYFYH
Protocol: FIG. 1 is an image of AMC fluorescence from an imaging agent in DLD1 colon carcinoma cells before (A) and after 2 hour treatment with TNF-related apoptosis-inducing ligand (TRAIL) (B).
DLD1 cells were seeded in an 8-chamber glass slide at a density of 2×10^4 cells/cm^2 in DMEM containing 10% FBS and allowed to attach overnight. Fluorescent images of the plated cells were acquired using an Olympus FV1000 confocal microscope equipped with an onstage incubation chamber. TRAIL was added to the cells in a 0.5 mL volume of fresh medium at a concentration of 50 ng/mL. Time-lapse microscopy was then immediately initiated with confocal images acquired at a rate of one image every 10 minutes. The cells were maintained at 37° C. in 5% CO2 for the duration of the experiment. An excitation wavelength of 405 nm and an emission wavelength range of 425 to 475 nm were used to detect the cleaved product of AMC-M808. Fluorescence intensity over time was measured in a representative region-of-interest in each 10-minute image acquired to determine the rate of caspase activity.

caspases = details: cell cultures containing 23% apoptotic cells; cited from earlier work

| Molecule | cleavage by caspase-3 after induction of apoptosis (caspase-3; DLD1 cells treated with TRAIL) | rate of increase in fluorescence intensity due to AMC-M808 cleavage (caspase-3; DLD1 cells, after TRAIL 50 ng/mL, first hour, region of interest in 10 minute frames) [min⁻¹] | cell permeability (caspase-3; DLD1 colon carcinoma cells in vitro) | uptake in cell cultures (caspases) |
| --- | --- | --- | --- | --- |
| COc1ccccc1CC(=O)NC(C(=O)NC(CC(=O)OCc1ccccc1)C(=O)Nc1ccc2c(C)cc(=O)oc2c1)C(C)C (stereo not shown) [Compound 3] | cleaved by caspase-3 | 5.5 | cell permeable | – |
| radioiodinated Z-Val-Ala-DL-Asp(O-methyl)-fluoromethyl ketone [[^131I]IZ-VAD-fmk] | – | – | – | some increase in uptake |
